From US20120157401A1, “METHODS FOR TREATING NEUROFIBROMATOSIS” (PTC Therapeutics, Inc., priority 2009, published 2012)

What was measured:
HT1080 xenografts = assay: BrdU labeling of cells from HT1080 xenografts grown in nude mice; type: in vivo, athymic nude mice; conditions: Day 1, 2, 3; Compound #10 10 mg/kg oral QD, doxorubicin 6 mg/kg IP, bevacizumab 5 mg/kg IP
Procedure: (§1) Experimental Design. HT1080 cells (5×10^6 cells/mouse) were implanted subcutaneously in male athymic nude mice.
The mice were sacrificed 3 hours later, and the tumors collected. A single cell suspension was prepared from the tumor cells. The cells were permeabilized and an antibody to BrdU was used to stain cells that had entered S phase during the labeling period. The proportion of cells actively synthesizing DNA was determined by cell sorting.

[1] = system: human VEGF121 and VEGF165; assay: HT1080 xenograft time course: pathologic plasma human VEGF; type: in vivo; conditions: by Day 1
Procedure: as §1
Tumor size was measured by calipers immediately pre-treatment and at the time of sacrifice on Day 1, 2, or 3 (5 mice per group per day). At sacrifice, the plasma was collected for assay of pathologic human VEGF concentration using an ELISA that recognizes human VEGF121 and VEGF165 (as described in Section 9.1.1.1).

[2] = system: hypoxia-inducible endogenous VEGF expression; assay: Hypoxia-inducible endogenous VEGF expression ELISA in HeLa cells, dose-response EC50 (Table 3); type: cell-based, human; conditions: Homo sapiens; HeLa cells, hypoxic conditions (1% O2), 24-48 hours, VEGF in conditioned media; read-out: ELISA EC50
In short: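 HeLa cells kept 24-48 h under hypoxia (1% O2, 5% CO2, nitrogen balance) with or without compound, e.g. seven concentrations; secreted VEGF in conditioned medium quantified by ELISA against a standard curve. Parallel Cell Titer Glo viability under identical conditions excludes cytotoxicity.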

IL-6 = assay: Patients: serum and plasma IL-6 levels; type: in vivo, human
Procedure: Subjects with NF2 may receive continuous daily treatment with a Compound administered at 100 mg per dose, 2 times a day (BID) for up to 1 year, or longer as appropriate, or until tumor progression. […] Tumor shrinkage or an improvement in hearing are indicators of efficacy.
Anti-angiogenic activity: Assessing VEGF concentrations provides a relevant and convenient mechanism-specific marker of Compound activity. […] For example, clinically validated ELISA kits (e.g., from R&D Systems, Minneapolis, Minn.) may be used to measure concentrations of VEGF, VEGF-C, P1GF, VEGFR, and inflammatory mediators such as IL-6 and IL-8. CT scan and MRI scan may also be used to assess peritumoral inflammation or edema.
Blood for VEGF, VEGFR, and Cytokines. Two blood samples (1 for plasma and 1 for serum) may be obtained for assessment of VEGF, VEGFR, and cytokine levels.
After processing, samples may be placed into a freezer at approximately −70° C. An ELISA-based multiplex system may be used to measure plasma VEGF and cytokine levels.

Compound: COc1cccc2c1C(=O)c1c(O)c3c(c(O)c1C2=O)C[C@@](O)(C(=O)CO)C[C@@H]3O[C@H]1C[C@H](N)[C@H](O)[C@H](C)O1 [doxorubicin, reference compound]
- BrdU staining of tumor cells (proportion of cells in S phase) (HT1080 xenografts): decreased the percentage of tumor cells staining with BrdU
- Pathologic plasma human VEGF levels vs control animals [1]: numerically lower than in control animals

Compound: COc1ccc([C@H]2c3[nH]c4ccc(Cl)cc4c3CCN2C(=O)Oc2ccc(Cl)cc2)cc1 [#10]
- EC50 [2]: < 8 nM
- Serum IL-6 levels in patients (FIG. 37) (IL-6): reduced
